Data: patent publication US20240336654A1, “ANTIMICROBIAL PEPTIDOMIMETICS” (SPEXIS AG, priority 2021, published 2024)
Where a SMILES comes first, the peptide text is derived from it. Bridges are numbered along the chain shown (N, C = ends). [ ]: non-standard residue; d: D form. Hyp = O=C(O)[C@@H]1C[C@@H](O)CN1; Pen = CC(C)(S)[C@H](N)C(=O)O; ΔPro = O=C(O)[C@@H]1C=CCN1; dDab = NCC[C@@H](N)C(=O)O; Dab = NCC[C@H](N)C(=O)O

Assays:
Assay type in all cases: cell-based
[1] = test system: human red blood cells (hRBC); details: red cells of human, 1 h, 200 μg/mL
Description: Lyophilized peptides were weighed on a Microbalance (Mettler MT5) and dissolved in sterile water to a final concentration of 1 mg/mL. Stock solutions were kept at +4° C., light protected. The peptides were tested for their hemolytic activity against human red blood cells (hRBC). Fresh hRBC were washed three times with phosphate buffered saline (PBS) and centrifuged for 5 min at 3000×g. Compounds (200 μg/mL) were incubated with 20% hRBC (v/v) for 1 h at 37° C. and shaking at 300 rpm. A value of 0% and 100% cell lyses, respectively, was determined by incubation of hRBC in the presence of PBS and 2.5% Triton X-100 in H2O, respectively. The samples were centrifuged, the supernatants were 8-fold diluted in PBS buffer and the optical densities (OD) were measured at 540 nm. The 100% lyses value (OD540H2O) gave an OD540 of approximately 0.5-1.0. Percent hemolysis was calculated as follows: (OD540peptide/OD540H2O)×100%.

[2] = test system: Escherichia coli MCR-1 Af 45; details: MCR-1 Af 45
Description: (§1) Lyophilized peptides were weighed on a Microbalance (Mettler MT5) and dissolved in sterile water to a final concentration of 1 mg/mL. Stock solutions were kept at +4° C., light protected.
(§2) The selective antimicrobial activities of the peptides were determined in 96-well plates (Greiner, polystyrene) by the standard CLSI broth microdilution method (Clinical and Laboratory Standards Institute. Methods for Dilution Antimicrobial Susceptibility Tests for Bacteria That Grow Aerobically; Approved Standard-Ninth Edition. CLSI document M07-A9 (ISBN 1-56238-783-9 [Print]; ISBN 1-56238-784-7 [Electronic]). Clinical and Laboratory Standards Institute, 950 West Valley Road, Suite 2500, Wayne, Pennsylvania 19087, USA, 2012) with slight modifications.
(§3) Colonies of the microorganisms were diluted in saline (0.85%, NaCl) and adjusted using a McFarland reader (bioMérieux SA, Marcy-l'Etoile, France) to 0.5 McFarland standard. Subsequently, the bacterial suspension was diluted in Mueller-Hinton II (MHII, cation adjusted) broth to give approximately 5×10^5 colony forming units (CFU/mL).
(§4) Inocula of the microorganisms were diluted into Mueller-Hinton II (MH, cation adjusted) broth and compared with a 0.5 McFarland standard to give appr. 10^6 colony forming units (CFU)/mL. Aliquots (90 μl) of inoculate were added to 10 μl of water+P-80 (Polysorbate 80, 0.002% final concentration) containing the peptide in serial two-fold dilutions at 10 fold final concentration. The following microorganisms were used to determine antibiotic selectivity of the peptides: Escherichia coli ATCC 25922, Escherichia coli MCR-1 Af 45 and Klebsiella pneumoniae SSI3010. Antimicrobial activities of the peptides were expressed as the minimal inhibitory concentration (MIC) in μg/mL at which no visible growth was observed after 18-20 hours of incubation at 35° C.

[3] = test system: Escherichia coli ATCC 25922; details: ATCC 25922
Description: as §1, §2, §3, §4

[4] = test system: Klebsiella pneumoniae SSI3010; details: SSI3010
Description: as §1, §2, §3, §4

SMILES | Escherichia coli MCR-1 Af45 MIC [2] | Escherichia coli ATCC 25922 MIC [3] | Klebsiella pneumoniae SSI3010 MIC [4] | Hemolysis at 0.2 g/L [1]
CC[C@H](C)[C@H](NC(=O)[C@@H]1C=CCN1C(=O)[C@@H](N)C(C)C)C(=O)N[C@@H]1C(=O)N[C@@H](Cc2ccc(O)cc2)C(=O)N[C@@H]([C@@H](C)O)C(=O)N[C@@H](CC(N)=O)C(=O)N[C@@H](CCCNC(=N)N)C(=O)N[C@@H](CCN)C(=O)N[C@@H]([C@@H](C)O)C(=O)N[C@H](CCN)C(=O)N[C@@H](CCCCN)C(=O)N[C@@H](CCN)C(=O)N[C@@H](CCN)C(=O)N[C@H](C(=O)N[C@@H](Cc2ccc(O)cc2)C(=O)O)CSSC1(C)C [Example 10, Val-Pro(3,4dehydro)-Ile-Pen-Tyr-Thr-Asn-Arg-Dab-Thr-^DDab-Lys-Dab-Dab-Cys-Tyr] (H-V[ΔPro]I[Pen]YTNR[Dab]T[dDab]K[Dab][Dab]CY-OH; disulfide 4-15) | 0.0625 µg/mL | 0.0625 µg/mL | 0.125 µg/mL | <1%
CC[C@H](C)[C@H](NC(=O)[C@@H]1C[C@@H](O)CN1C(=O)[C@@H](N)C(C)C)C(=O)N[C@H]1CSSC[C@@H](C(=O)N[C@@H](Cc2ccc(O)cc2)C(=O)O)NC(=O)[C@H](CCN)NC(=O)[C@H](CCN)NC(=O)[C@H](CCCCN)NC(=O)[C@@H](CCN)NC(=O)[C@H]([C@@H](C)O)NC(=O)[C@H](CCN)NC(=O)[C@H](CCCNC(=N)N)NC(=O)[C@H](CC(N)=O)NC(=O)[C@H](CO)NC(=O)[C@H](Cc2ccc(O)cc2)NC1=O [Example 11, Val-Hyp-Ile-Cys-Tyr-Ser-Asn-Arg-Dab-Thr-^DDab-Lys-Dab-Dab-Cys-Tyr] (H-V[Hyp]ICYSNR[Dab]T[dDab]K[Dab][Dab]CY-OH; disulfide 4-15) | 0.25 µg/mL | 0.5 µg/mL | 0.5 µg/mL | <1%
CC[C@H](C)[C@H](NC(=O)[C@@H]1C[C@@H](O)CN1C(=O)[C@@H](N)C(C)C)C(=O)N[C@@H]1C(=O)N[C@@H](C)C(=O)N[C@@H](CO)C(=O)N[C@@H](CC(N)=O)C(=O)N[C@@H](CCCNC(=N)N)C(=O)N[C@@H](CCN)C(=O)N[C@@H]([C@@H](C)O)C(=O)N[C@H](CCN)C(=O)N[C@@H](CCCCN)C(=O)N[C@@H](CCN)C(=O)N[C@@H](CCN)C(=O)N[C@H](C(=O)N[C@@H](Cc2ccc(O)cc2)C(=O)O)CSSC1(C)C [Example 13, Val-Hyp-Ile-Pen-Ala-Ser-Asn-Arg-Dab-Thr-^DDab-Lys-Dab-Dab-Cys-Tyr] (H-V[Hyp]I[Pen]ASNR[Dab]T[dDab]K[Dab][Dab]CY-OH; disulfide 4-15) | 0.125 µg/mL | 0.5 µg/mL | 0.5 µg/mL | <1%
CC[C@H](C)[C@H](NC(=O)[C@@H]1C[C@@H](O)CN1C(=O)[C@@H](N)C(C)C)C(=O)N[C@@H]1C(=O)N[C@@H](CO)C(=O)N[C@@H](CO)C(=O)N[C@@H](CC(N)=O)C(=O)N[C@@H](CCCNC(=N)N)C(=O)N[C@@H](CCN)C(=O)N[C@@H]([C@@H](C)O)C(=O)N[C@H](CCN)C(=O)N[C@@H](CCCCN)C(=O)N[C@@H](CCN)C(=O)N[C@@H](CCN)C(=O)N[C@H](C(=O)N[C@@H](Cc2ccc(O)cc2)C(=O)O)CSSC1(C)C [Example 14, Val-Hyp-Ile-Pen-Ser-Ser-Asn-Arg-Dab-Thr-^DDab-Lys-Dab-Dab-Cys-Tyr] (H-V[Hyp]I[Pen]SSNR[Dab]T[dDab]K[Dab][Dab]CY-OH; disulfide 4-15) | 0.25 µg/mL | 0.5 µg/mL | 0.5 µg/mL | <1%

Second part, led by results:

Escherichia coli MCR-1 Af45 MIC [2] | Escherichia coli ATCC 25922 MIC [3] | Klebsiella pneumoniae SSI3010 MIC [4] | SMILES | Hemolysis at 0.2 g/L [1]
0.125 µg/mL | 0.25 µg/mL | 0.5 µg/mL | CC[C@H](C)[C@H](NC(=O)[C@@H]1C[C@@H](O)CN1C(=O)[C@@H](N)C(C)C)C(=O)N[C@H]1CSSC(C)(C)[C@@H](C(=O)N[C@@H](Cc2ccc(O)cc2)C(=O)O)NC(=O)[C@H](CCN)NC(=O)[C@H](CCN)NC(=O)[C@H](CCCCN)NC(=O)[C@@H](CCN)NC(=O)[C@H]([C@@H](C)O)NC(=O)[C@H](CCN)NC(=O)[C@H](CCCNC(=N)N)NC(=O)[C@H](CC(N)=O)NC(=O)[C@H](CO)NC(=O)[C@H](Cc2ccc(O)cc2)NC1=O [Example 12, Val-Hyp-Ile-Cys-Tyr-Ser-Asn-Arg-Dab-Thr-^DDab-Lys-Dab-Dab-Pen-Tyr] (H-V[Hyp]ICYSNR[Dab]T[dDab]K[Dab][Dab][Pen]Y-OH; disulfide 4-15) | <1%
0.0625 µg/mL | 0.0625 µg/mL | 0.125 µg/mL | CC[C@H](C)[C@H](NC(=O)[C@@H]1C[C@@H](O)CN1C(=O)[C@@H](N)C(C)C)C(=O)N[C@@H]1C(=O)N[C@@H](Cc2ccc(O)cc2)C(=O)N[C@@H]([C@@H](C)O)C(=O)N[C@@H](CC(N)=O)C(=O)N[C@@H](CCCNC(=N)N)C(=O)N[C@@H](CCN)C(=O)N[C@@H]([C@@H](C)O)C(=O)N[C@H](CCN)C(=O)N[C@@H](CCCCN)C(=O)N[C@@H](CCN)C(=O)N[C@@H](CCN)C(=O)N[C@H](C(=O)N[C@@H](Cc2ccc(O)cc2)C(=O)O)CSSC1(C)C [Example 15, Val-Hyp-Ile-Pen-Tyr-Thr-Asn-Arg-Dab-Thr-^DDab-Lys-Dab-Dab-Cys-Tyr] (H-V[Hyp]I[Pen]YTNR[Dab]T[dDab]K[Dab][Dab]CY-OH; disulfide 4-15) | <1%
0.25 µg/mL | 0.375 µg/mL | 0.5 µg/mL | CC[C@H](C)[C@@H]1NC(=O)[C@H](Cc2ccc(O)cc2)NC(=O)[C@@H](NC(=O)[C@@H](NC(=O)[C@@H]2C[C@@H](O)CN2C(=O)[C@@H](N)C(C)C)[C@@H](C)CC)C(C)(C)SSC[C@@H](C(=O)N[C@@H](Cc2ccc(O)cc2)C(=O)O)NC(=O)[C@H](CCN)NC(=O)[C@H](CCCNC(=N)N)NC(=O)[C@H](CCCCN)NC(=O)[C@@H](CCN)NC(=O)[C@H]([C@@H](C)O)NC(=O)[C@H](CCN)NC(=O)[C@H](CCCNC(=N)N)NC(=O)[C@H](CC(N)=O)NC1=O [Example 16, Val-Hyp-Ile-Pen-Tyr-Ile-Asn-Arg-Dab-Thr-^DDab-Lys-Arg-Dab-Cys-Tyr] (H-V[Hyp]I[Pen]YINR[Dab]T[dDab]KR[Dab]CY-OH; disulfide 4-15) | <1%
0.25 µg/mL | 0.5 µg/mL | 0.5 µg/mL | CC[C@H](C)[C@H](NC(=O)[C@@H]1C[C@@H](O)CN1C(=O)[C@@H](N)C(C)C)C(=O)N[C@@H]1C(=O)N[C@@H](Cc2ccc(O)cc2)C(=O)N[C@@H](CCC(=O)O)C(=O)N[C@@H](CC(N)=O)C(=O)N[C@@H](CCCNC(=N)N)C(=O)N[C@@H](CCN)C(=O)N[C@@H]([C@@H](C)O)C(=O)N[C@H](CCN)C(=O)N[C@@H](CCCCN)C(=O)N[C@@H](CCN)C(=O)N[C@@H](CCN)C(=O)N[C@H](C(=O)N[C@@H](Cc2ccc(O)cc2)C(=O)O)CSSC1(C)C [Example 17, Val-Hyp-Ile-Pen-Tyr-Glu-Asn-Arg-Dab-Thr-^DDab-Lys-Dab-Dab-Cys-Tyr] (H-V[Hyp]I[Pen]YENR[Dab]T[dDab]K[Dab][Dab]CY-OH; disulfide 4-15) | <1%
0.125 µg/mL | 0.25 µg/mL | 0.25 µg/mL | CC[C@H](C)[C@H](NC(=O)[C@@H]1C[C@@H](O)CN1C(=O)[C@@H](N)C(C)C)C(=O)N[C@@H]1C(=O)N[C@@H](Cc2ccc(O)cc2)C(=O)N[C@@H](CC(N)=O)C(=O)N[C@@H](CC(N)=O)C(=O)N[C@@H](CCCNC(=N)N)C(=O)N[C@@H](CCN)C(=O)N[C@@H]([C@@H](C)O)C(=O)N[C@H](CCN)C(=O)N[C@@H](CCCCN)C(=O)N[C@@H](CCN)C(=O)N[C@@H](CCN)C(=O)N[C@H](C(=O)N[C@@H](Cc2ccc(O)cc2)C(=O)O)CSSC1(C)C [Example 18, Val-Hyp-Ile-Pen-Tyr-Asn-Asn-Arg-Dab-Thr-^DDab-Lys-Dab-Dab-Cys-Tyr] (H-V[Hyp]I[Pen]YNNR[Dab]T[dDab]K[Dab][Dab]CY-OH; disulfide 4-15) | <1%
